{"source": "the kinase profiling compilation of Christmann-Franck et al. (2016)", "assay_in_all_cases": "radiometric filter-binding kinase assay, Kinase HotSpot", "conditions_in_all_cases": "compound 0.5 µM; ATP 10 µM", "key": {"INSRR (human)": {"target": "INSRR (human) (UniProt P14616)"}, "ERBB4 (human)": {"target": "ERBB4 (human) (UniProt Q15303)"}, "TAOK3 (human)": {"target": "TAOK3 (human) (UniProt Q9H2K8)"}, "PRKCD (human)": {"target": "PRKCD (human) (UniProt Q05655)", "sequence (Q05655 whole entry, looked up)": "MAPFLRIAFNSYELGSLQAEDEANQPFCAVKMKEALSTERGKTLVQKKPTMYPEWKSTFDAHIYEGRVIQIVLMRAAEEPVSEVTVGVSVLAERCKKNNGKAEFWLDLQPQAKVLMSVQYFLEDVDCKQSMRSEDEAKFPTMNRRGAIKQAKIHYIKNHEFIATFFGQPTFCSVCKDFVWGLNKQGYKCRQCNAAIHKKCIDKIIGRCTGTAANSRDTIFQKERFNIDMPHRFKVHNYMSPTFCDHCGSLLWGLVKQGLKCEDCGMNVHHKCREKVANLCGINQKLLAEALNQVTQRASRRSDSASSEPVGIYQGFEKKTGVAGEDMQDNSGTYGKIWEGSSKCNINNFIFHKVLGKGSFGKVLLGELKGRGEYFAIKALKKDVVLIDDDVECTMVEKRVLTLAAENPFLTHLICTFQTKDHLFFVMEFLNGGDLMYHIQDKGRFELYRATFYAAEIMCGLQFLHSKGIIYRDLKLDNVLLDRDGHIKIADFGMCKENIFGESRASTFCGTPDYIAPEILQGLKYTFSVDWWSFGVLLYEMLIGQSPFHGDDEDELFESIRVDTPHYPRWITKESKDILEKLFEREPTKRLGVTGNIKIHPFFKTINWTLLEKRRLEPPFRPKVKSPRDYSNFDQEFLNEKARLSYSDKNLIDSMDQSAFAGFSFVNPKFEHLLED"}, "CHUK (human)": {"target": "CHUK (human) (UniProt O15111)"}, "PRKCG (human)": {"target": "PRKCG (human) (UniProt P05129)"}, "EPHA1 (human)": {"target": "EPHA1 (human) (UniProt P21709)"}, "MAP2K2 (human)": {"target": "MAP2K2 (human) (UniProt P36507)", "sequence (P36507 whole entry, looked up)": "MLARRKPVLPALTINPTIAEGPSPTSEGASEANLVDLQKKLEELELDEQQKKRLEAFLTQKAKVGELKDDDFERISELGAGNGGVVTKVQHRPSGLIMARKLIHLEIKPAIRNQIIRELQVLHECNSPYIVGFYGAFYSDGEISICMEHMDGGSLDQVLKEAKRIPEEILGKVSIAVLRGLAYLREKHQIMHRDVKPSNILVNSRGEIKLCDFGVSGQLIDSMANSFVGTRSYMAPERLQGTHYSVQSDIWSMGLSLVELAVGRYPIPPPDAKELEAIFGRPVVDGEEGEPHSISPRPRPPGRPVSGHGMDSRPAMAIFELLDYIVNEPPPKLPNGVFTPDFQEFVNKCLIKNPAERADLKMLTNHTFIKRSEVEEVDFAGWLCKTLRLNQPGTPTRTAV"}, "MAP3K3 (human)": {"target": "MAP3K3 (human) (UniProt Q99759)"}, "NEK9 (human)": {"target": "NEK9 (human) (UniProt Q8TD19)"}, "EPHA8 (human)": {"target": "EPHA8 (human) (UniProt P29322)"}, "CAMK2B (human)": {"target": "CAMK2B (human) (UniProt Q13554)"}, "BTK (human)": {"target": "BTK (human) (UniProt Q06187)"}, "CAMK1D (human)": {"target": "CAMK1D (human) (UniProt Q8IU85)"}, "NEK4 (human)": {"target": "NEK4 (human) (UniProt P51957)", "sequence (P51957 whole entry, looked up)": "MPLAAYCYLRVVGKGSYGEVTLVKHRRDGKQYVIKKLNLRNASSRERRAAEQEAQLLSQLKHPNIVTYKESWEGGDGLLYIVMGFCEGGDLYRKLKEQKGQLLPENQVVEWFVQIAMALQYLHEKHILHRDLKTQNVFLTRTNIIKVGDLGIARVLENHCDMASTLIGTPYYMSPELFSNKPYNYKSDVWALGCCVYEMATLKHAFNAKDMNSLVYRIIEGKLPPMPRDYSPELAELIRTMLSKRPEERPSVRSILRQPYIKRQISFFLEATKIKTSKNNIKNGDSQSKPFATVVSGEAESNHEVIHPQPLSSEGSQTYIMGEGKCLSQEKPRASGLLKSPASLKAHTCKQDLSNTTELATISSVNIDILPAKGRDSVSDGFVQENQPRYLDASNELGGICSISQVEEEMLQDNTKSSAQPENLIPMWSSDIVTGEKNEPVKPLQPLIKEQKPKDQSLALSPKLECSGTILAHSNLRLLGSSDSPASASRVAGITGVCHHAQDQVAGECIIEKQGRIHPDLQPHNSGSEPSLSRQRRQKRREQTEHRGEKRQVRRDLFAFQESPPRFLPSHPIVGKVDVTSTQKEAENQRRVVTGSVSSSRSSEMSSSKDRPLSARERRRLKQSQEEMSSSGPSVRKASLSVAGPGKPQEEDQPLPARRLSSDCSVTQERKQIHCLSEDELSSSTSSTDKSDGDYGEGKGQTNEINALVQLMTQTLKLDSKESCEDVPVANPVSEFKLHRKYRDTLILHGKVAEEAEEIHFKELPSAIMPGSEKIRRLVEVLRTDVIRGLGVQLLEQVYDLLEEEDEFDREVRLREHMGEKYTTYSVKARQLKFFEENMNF"}, "GRK4 (human)": {"target": "GRK4 (human) (UniProt P32298)"}, "PRKG1 (human)": {"target": "PRKG1 (human) (UniProt Q13976)", "sequence (Q13976 whole entry, looked up)": "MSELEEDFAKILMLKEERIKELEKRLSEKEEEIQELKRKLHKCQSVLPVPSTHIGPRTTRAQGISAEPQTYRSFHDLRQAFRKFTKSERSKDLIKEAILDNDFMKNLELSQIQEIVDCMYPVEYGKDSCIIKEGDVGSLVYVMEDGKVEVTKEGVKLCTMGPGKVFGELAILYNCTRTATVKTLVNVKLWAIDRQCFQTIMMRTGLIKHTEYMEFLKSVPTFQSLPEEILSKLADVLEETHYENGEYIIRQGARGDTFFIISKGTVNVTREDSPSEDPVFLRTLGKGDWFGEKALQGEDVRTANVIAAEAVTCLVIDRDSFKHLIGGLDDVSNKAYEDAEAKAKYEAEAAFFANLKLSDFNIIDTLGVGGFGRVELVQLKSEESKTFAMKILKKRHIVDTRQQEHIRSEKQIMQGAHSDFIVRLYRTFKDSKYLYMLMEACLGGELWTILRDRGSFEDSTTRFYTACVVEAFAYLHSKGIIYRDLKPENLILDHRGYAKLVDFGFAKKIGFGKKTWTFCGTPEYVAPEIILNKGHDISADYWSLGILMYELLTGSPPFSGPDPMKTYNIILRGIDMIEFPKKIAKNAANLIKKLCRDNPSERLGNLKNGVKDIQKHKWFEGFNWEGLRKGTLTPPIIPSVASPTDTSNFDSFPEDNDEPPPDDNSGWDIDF"}, "NEK7 (human)": {"target": "NEK7 (human) (UniProt Q8TDX7)"}, "GRK5 (human)": {"target": "GRK5 (human) (UniProt P34947)"}, "SRPK2 (human)": {"target": "SRPK2 (human) (UniProt P78362)"}, "NEK6 (human)": {"target": "NEK6 (human) (UniProt Q9HC98)", "sequence (Q9HC98 whole entry, looked up)": "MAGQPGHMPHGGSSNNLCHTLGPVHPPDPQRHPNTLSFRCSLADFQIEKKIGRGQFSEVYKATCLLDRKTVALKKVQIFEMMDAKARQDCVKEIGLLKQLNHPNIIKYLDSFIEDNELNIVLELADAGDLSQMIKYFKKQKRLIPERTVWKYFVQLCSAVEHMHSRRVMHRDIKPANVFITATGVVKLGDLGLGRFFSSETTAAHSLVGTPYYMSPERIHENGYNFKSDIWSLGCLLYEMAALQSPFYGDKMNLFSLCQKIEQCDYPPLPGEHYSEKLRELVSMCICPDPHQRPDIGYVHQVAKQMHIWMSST"}, "RET (human)": {"target": "RET (human) (UniProt P07949)"}, "HIPK1 (human)": {"target": "HIPK1 (human) (UniProt Q86Z02)", "sequence (Q86Z02 whole entry, looked up)": "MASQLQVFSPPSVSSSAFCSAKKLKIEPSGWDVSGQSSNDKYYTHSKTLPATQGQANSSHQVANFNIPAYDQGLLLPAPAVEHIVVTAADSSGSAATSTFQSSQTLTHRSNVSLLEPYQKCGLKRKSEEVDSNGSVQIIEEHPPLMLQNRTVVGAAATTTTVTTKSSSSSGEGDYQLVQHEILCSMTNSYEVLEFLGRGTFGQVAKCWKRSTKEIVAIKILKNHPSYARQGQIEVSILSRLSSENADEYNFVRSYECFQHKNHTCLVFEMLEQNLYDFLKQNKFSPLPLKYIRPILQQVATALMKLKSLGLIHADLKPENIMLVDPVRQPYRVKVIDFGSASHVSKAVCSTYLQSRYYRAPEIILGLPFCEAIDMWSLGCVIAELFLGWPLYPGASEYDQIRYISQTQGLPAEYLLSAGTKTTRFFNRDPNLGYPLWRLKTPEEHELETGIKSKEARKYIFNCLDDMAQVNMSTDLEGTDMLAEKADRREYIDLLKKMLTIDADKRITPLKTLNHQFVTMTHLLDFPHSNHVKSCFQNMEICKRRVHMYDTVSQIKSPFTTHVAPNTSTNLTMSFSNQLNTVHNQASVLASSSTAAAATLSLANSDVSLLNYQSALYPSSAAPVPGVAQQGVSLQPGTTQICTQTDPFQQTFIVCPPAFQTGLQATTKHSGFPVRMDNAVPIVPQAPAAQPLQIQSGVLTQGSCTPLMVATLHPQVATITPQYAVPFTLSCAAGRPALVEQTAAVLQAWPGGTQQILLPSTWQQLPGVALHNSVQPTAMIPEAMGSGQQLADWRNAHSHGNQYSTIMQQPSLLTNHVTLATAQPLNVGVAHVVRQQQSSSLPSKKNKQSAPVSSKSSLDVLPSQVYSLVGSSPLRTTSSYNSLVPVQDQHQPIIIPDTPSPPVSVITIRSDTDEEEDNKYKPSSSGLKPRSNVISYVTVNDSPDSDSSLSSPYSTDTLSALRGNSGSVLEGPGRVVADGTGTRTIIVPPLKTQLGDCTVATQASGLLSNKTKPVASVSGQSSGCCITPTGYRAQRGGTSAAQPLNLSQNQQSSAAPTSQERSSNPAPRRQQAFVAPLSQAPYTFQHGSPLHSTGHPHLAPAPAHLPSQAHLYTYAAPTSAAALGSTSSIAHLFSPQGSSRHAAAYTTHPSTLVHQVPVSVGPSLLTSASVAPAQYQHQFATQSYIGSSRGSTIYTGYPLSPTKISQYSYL"}, "EPHA5 (human)": {"target": "EPHA5 (human) (UniProt P54756)"}, "SGK2 (human)": {"target": "SGK2 (human) (UniProt Q9HBY8)", "sequence (Q9HBY8 whole entry, looked up)": "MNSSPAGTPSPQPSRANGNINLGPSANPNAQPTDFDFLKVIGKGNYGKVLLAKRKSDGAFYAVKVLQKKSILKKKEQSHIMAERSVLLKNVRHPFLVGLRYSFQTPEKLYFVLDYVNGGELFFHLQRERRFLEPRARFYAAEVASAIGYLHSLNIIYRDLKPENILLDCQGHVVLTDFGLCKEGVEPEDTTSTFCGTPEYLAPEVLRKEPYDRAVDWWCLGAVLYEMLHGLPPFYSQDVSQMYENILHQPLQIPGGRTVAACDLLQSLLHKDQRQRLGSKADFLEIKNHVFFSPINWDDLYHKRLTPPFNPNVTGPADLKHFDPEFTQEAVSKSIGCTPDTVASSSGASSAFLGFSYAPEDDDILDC"}, "HCK (human)": {"target": "HCK (human) (UniProt P08631)"}, "LRRK2 (human)": {"target": "LRRK2 (human) (UniProt Q5S007)"}, "MARK2 (human)": {"target": "MARK2 (human) (UniProt Q7KZI7)"}, "DCLK2 (human)": {"target": "DCLK2 (human) (UniProt Q8N568)"}, "JAK2 JH1 JH2 (human)": {"target": "JAK2 JH1 JH2 (human) (UniProt O60674)"}, "CSNK1G1 (human)": {"target": "CSNK1G1 (human) (UniProt Q9HCP0)"}, "MAPK8 (human)": {"target": "MAPK8 (human) (UniProt P45983)", "sequence (P45983 whole entry, looked up)": "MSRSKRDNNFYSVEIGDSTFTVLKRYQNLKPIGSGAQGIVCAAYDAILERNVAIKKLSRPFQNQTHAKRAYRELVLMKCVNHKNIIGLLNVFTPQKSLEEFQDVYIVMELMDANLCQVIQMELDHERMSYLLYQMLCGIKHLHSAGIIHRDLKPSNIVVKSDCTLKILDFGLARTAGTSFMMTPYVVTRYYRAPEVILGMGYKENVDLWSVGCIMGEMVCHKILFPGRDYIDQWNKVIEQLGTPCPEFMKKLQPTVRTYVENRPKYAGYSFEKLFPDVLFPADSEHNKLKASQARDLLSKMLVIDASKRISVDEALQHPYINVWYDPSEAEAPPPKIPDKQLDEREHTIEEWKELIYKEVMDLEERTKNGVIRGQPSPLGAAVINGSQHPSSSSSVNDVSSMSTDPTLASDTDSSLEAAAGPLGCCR"}, "ABL2 (human)": {"target": "ABL2 (human) (UniProt P42684)"}, "NEK1 (human)": {"target": "NEK1 (human) (UniProt Q96PY6)"}, "YES1 (human)": {"target": "YES1 (human) (UniProt P07947)"}, "DSTYK (human)": {"target": "DSTYK (human) (UniProt Q6XUX3)"}, "CDK4 CCND3 (human)": {"target": "CDK4 CCND3 (human) (UniProt P30281+P11802)"}, "BMX (human)": {"target": "BMX (human) (UniProt P51813)"}, "PRKD1 (human)": {"target": "PRKD1 (human) (UniProt Q15139)"}, "DYRK4 (human)": {"target": "DYRK4 (human) (UniProt Q9NR20)"}, "MAP4K5 (human)": {"target": "MAP4K5 (human) (UniProt Q9Y4K4)"}, "MAPK12 (human)": {"target": "MAPK12 (human) (UniProt P53778)"}}, "note": "Several values for one entry are separate records, joined by “and”; a condition that tells them apart may be missing. Identical values can stand only once.", "data": [{"compound": "CSc1nc(-c2ccc(F)cc2)c(-c2ccnc(NC(C)c3ccccc3)c2)[nH]1", "note": "(stereo unspecified)", "values": [{"measurement": "residual activity", "setting": "INSRR (human)", "value": 98.9, "unit": "%"}, {"measurement": "residual activity", "setting": "ERBB4 (human)", "value": 98.4, "unit": "%"}, {"measurement": "residual activity", "setting": "TAOK3 (human)", "value": 91.7, "unit": "%"}, {"measurement": "residual activity", "setting": "PRKCD (human)", "value": 89.1, "unit": "%"}, {"measurement": "residual activity", "setting": "CHUK (human)", "value": 98.4, "unit": "%"}, {"measurement": "residual activity", "setting": "PRKCG (human)", "value": 101, "unit": "%"}, {"measurement": "residual activity", "setting": "EPHA1 (human)", "value": 89.8, "unit": "%"}, {"measurement": "residual activity", "setting": "MAP2K2 (human)", "value": 78.6, "unit": "%"}, {"measurement": "residual activity", "setting": "MAP3K3 (human)", "value": 80, "unit": "%"}, {"measurement": "residual activity", "setting": "NEK9 (human)", "value": 89.4, "unit": "%"}, {"measurement": "residual activity", "setting": "EPHA8 (human)", "value": 82.2, "unit": "%"}, {"measurement": "residual activity", "setting": "CAMK2B (human)", "value": 89.2, "unit": "%"}, {"measurement": "residual activity", "setting": "BTK (human)", "value": 76.6, "unit": "%"}, {"measurement": "residual activity", "setting": "CAMK1D (human)", "value": 91.7, "unit": "%"}, {"measurement": "residual activity", "setting": "NEK4 (human)", "value": 102, "unit": "%"}, {"measurement": "residual activity", "setting": "GRK4 (human)", "value": 90.6, "unit": "%"}, {"measurement": "residual activity", "setting": "PRKG1 (human)", "value": 105, "unit": "%"}, {"measurement": "residual activity", "setting": "NEK7 (human)", "value": 89.6, "unit": "%"}, {"measurement": "residual activity", "setting": "GRK5 (human)", "value": 103, "unit": "%"}, {"measurement": "residual activity", "setting": "SRPK2 (human)", "value": 94.4, "unit": "%"}, {"measurement": "residual activity", "setting": "NEK6 (human)", "value": 106, "unit": "%"}, {"measurement": "residual activity", "setting": "RET (human)", "value": 101, "unit": "%"}, {"measurement": "residual activity", "setting": "HIPK1 (human)", "value": 110, "unit": "%"}, {"measurement": "residual activity", "setting": "EPHA5 (human)", "value": 106, "unit": "%"}, {"measurement": "residual activity", "setting": "SGK2 (human)", "value": 96.1, "unit": "%"}, {"measurement": "residual activity", "setting": "HCK (human)", "value": 83.5, "unit": "%"}, {"measurement": "residual activity", "setting": "LRRK2 (human)", "value": 100, "unit": "%"}, {"measurement": "residual activity", "setting": "MARK2 (human)", "value": 90.7, "unit": "%"}, {"measurement": "residual activity", "setting": "DCLK2 (human)", "value": 92.7, "unit": "%"}, {"measurement": "residual activity", "setting": "JAK2 JH1 JH2 (human)", "value": 102, "unit": "%"}, {"measurement": "residual activity", "setting": "CSNK1G1 (human)", "value": 67.2, "unit": "%"}, {"measurement": "residual activity", "setting": "MAPK8 (human)", "value": 86.3, "unit": "%"}, {"measurement": "residual activity", "setting": "ABL2 (human)", "value": 95.7, "unit": "%"}, {"measurement": "residual activity", "setting": "NEK1 (human)", "value": 86.3, "unit": "%"}, {"measurement": "residual activity", "setting": "YES1 (human)", "value": 91.8, "unit": "%"}, {"measurement": "residual activity", "setting": "DSTYK (human)", "value": 102, "unit": "%"}, {"measurement": "residual activity", "setting": "CDK4 CCND3 (human)", "value": 111, "unit": "%"}, {"measurement": "residual activity", "setting": "BMX (human)", "value": 102, "unit": "%"}, {"measurement": "residual activity", "setting": "PRKD1 (human)", "value": 90.1, "unit": "%"}, {"measurement": "residual activity", "setting": "DYRK4 (human)", "value": 91.4, "unit": "%"}, {"measurement": "residual activity", "setting": "MAP4K5 (human)", "value": 85.6, "unit": "%"}]}, {"compound": "O=C1Nc2cc(Br)ccc2/C1=C1/Nc2ccccc2/C1=N\\O", "values": [{"measurement": "residual activity", "setting": "INSRR (human)", "value": 81, "unit": "%"}, {"measurement": "residual activity", "setting": "ERBB4 (human)", "value": 96.8, "unit": "%"}, {"measurement": "residual activity", "setting": "TAOK3 (human)", "value": 56.9, "unit": "%"}, {"measurement": "residual activity", "setting": "PRKCD (human)", "value": 103, "unit": "%"}, {"measurement": "residual activity", "setting": "CHUK (human)", "value": 104, "unit": "%"}, {"measurement": "residual activity", "setting": "PRKCG (human)", "value": 90.9, "unit": "%"}, {"measurement": "residual activity", "setting": "EPHA1 (human)", "value": 98.5, "unit": "%"}, {"measurement": "residual activity", "setting": "MAP2K2 (human)", "value": 92.4, "unit": "%"}, {"measurement": "residual activity", "setting": "MAP3K3 (human)", "value": 107, "unit": "%"}, {"measurement": "residual activity", "setting": "NEK9 (human)", "value": 96.3, "unit": "%"}, {"measurement": "residual activity", "setting": "EPHA8 (human)", "value": 97.6, "unit": "%"}, {"measurement": "residual activity", "setting": "CAMK2B (human)", "value": 65.8, "unit": "%"}, {"measurement": "residual activity", "setting": "MAPK12 (human)", "value": 93.8, "unit": "%"}, {"measurement": "residual activity", "setting": "BTK (human)", "value": 13.1, "unit": "%"}, {"measurement": "residual activity", "setting": "NEK4 (human)", "value": 96.7, "unit": "%"}, {"measurement": "residual activity", "setting": "GRK4 (human)", "value": 90.1, "unit": "%"}, {"measurement": "residual activity", "setting": "PRKG1 (human)", "value": "89% and 93.6%"}, {"measurement": "residual activity", "setting": "NEK7 (human)", "value": 103, "unit": "%"}, {"measurement": "residual activity", "setting": "GRK5 (human)", "value": 125, "unit": "%"}, {"measurement": "residual activity", "setting": "SRPK2 (human)", "value": 63.9, "unit": "%"}, {"measurement": "residual activity", "setting": "NEK6 (human)", "value": 99.9, "unit": "%"}, {"measurement": "residual activity", "setting": "RET (human)", "value": 0.0602, "unit": "%"}, {"measurement": "residual activity", "setting": "HIPK1 (human)", "value": 103, "unit": "%"}, {"measurement": "residual activity", "setting": "EPHA5 (human)", "value": 70.4, "unit": "%"}, {"measurement": "residual activity", "setting": "SGK2 (human)", "value": 73, "unit": "%"}, {"measurement": "residual activity", "setting": "HCK (human)", "value": 13.3, "unit": "%"}, {"measurement": "residual activity", "setting": "LRRK2 (human)", "value": 95.3, "unit": "%"}, {"measurement": "residual activity", "setting": "MARK2 (human)", "value": 61.8, "unit": "%"}, {"measurement": "residual activity", "setting": "DCLK2 (human)", "value": 99.1, "unit": "%"}, {"measurement": "residual activity", "setting": "JAK2 JH1 JH2 (human)", "value": 93.8, "unit": "%"}, {"measurement": "residual activity", "setting": "CSNK1G1 (human)", "value": 87.6, "unit": "%"}, {"measurement": "residual activity", "setting": "MAPK8 (human)", "value": 98.7, "unit": "%"}, {"measurement": "residual activity", "setting": "NEK1 (human)", "value": 93.8, "unit": "%"}, {"measurement": "residual activity", "setting": "YES1 (human)", "value": 15.8, "unit": "%"}, {"measurement": "residual activity", "setting": "DSTYK (human)", "value": 102, "unit": "%"}, {"measurement": "residual activity", "setting": "CDK4 CCND3 (human)", "value": 75.9, "unit": "%"}, {"measurement": "residual activity", "setting": "BMX (human)", "value": 29.2, "unit": "%"}, {"measurement": "residual activity", "setting": "PRKD1 (human)", "value": 93.6, "unit": "%"}, {"measurement": "residual activity", "setting": "DYRK4 (human)", "value": 99.4, "unit": "%"}, {"measurement": "residual activity", "setting": "MAP4K5 (human)", "value": 36.5, "unit": "%"}]}]}
